Key:
[1] = Determination of stability against strong alkali (solid NaOH), visual inspection; settings: for Appearance of test solutions after 96 h of storage: 25 g of 40% by weight aqueous solution, ambient temperature; for Solubility / appearance with increasing NaOH amounts (summary): 40% by weight aqueous solution, 0 to 2.5 g solid NaOH added, up to 96 hours
[2] = Determination of solubility in water (Tsol); format: physicochemical; settings: minimum temperature for forming a kinetically stable (clear) 50% by weight solution in water; cooled 30° C./h to precipitation, reheated 1° C./h
Protocol: In each case, the solubility was calculated to refer to pure MGDA, without hydrate water.
The solubility of inventive mixtures and of comparison experiments was determined with an apparatus that allowed heating and cooling down liquid solutions. […] Then, the slurry of crystals of MGDA so obtained was again heated at a speed of 1° C./h until a clear solution was obtained. The slurry/solution was checked for solid particles by visible light scattering detection.
The above tests furnished the minimum temperature, Tsol, for forming a kinetically stable 50% by weight solution of the respective mixture of isomers. A higher temperature Tsol correlates with a lower solubility at ambient temperature.

Appearance of test solutions after 96 h of storage ([1]; NaOH added 1.5 g (6 wt. % vs. 40% solution), * = after 48 hours, listed as MGDA: 50% ee) | Appearance of test solutions after 96 h of storage ([1]; NaOH added 2.0 g (8 wt. % vs. 40% solution), * = after 48 hours, listed as MGDA: 50% ee) | Appearance of test solutions after 96 h of storage ([1]; NaOH added 2.5 g (10 wt. % vs. 40% solution), ** = immediately after addition of NaOH, listed as MGDA: 50% ee) | Solubility / appearance with increasing NaOH amounts (summary) ([1]; listed as mixture according to the present invention (50% ee)) | Tsol [2] [°C] | Appearance of test solutions after 96 h of storage ([1]; NaOH added 0 g (0 wt. % vs. 40% solution)) | Appearance of test solutions after 96 h of storage ([1]; NaOH added 0.5 g (2 wt. % vs. 40% solution)) | Appearance of test solutions after 96 h of storage ([1]; NaOH added 1.0 g (4 wt. % vs. 40% solution)) | Appearance of test solutions after 96 h of storage ([1]; NaOH added 1.5 g (6 wt. % vs. 40% solution), * = after 48 hours, listed as Racemic MGDA) | Appearance of test solutions after 96 h of storage ([1]; NaOH added 2.0 g (8 wt. % vs. 40% solution), * = after 48 hours, listed as Racemic MGDA) | Appearance of test solutions after 96 h of storage ([1]; NaOH added 2.5 g (10 wt. % vs. 40% solution), ** = immediately after addition of NaOH, listed as Racemic MGDA) | Solubility / appearance with increasing NaOH amounts (summary) ([1]; listed as racemic MGDA) | Compound
clear liquid | clear liquid | clear liquid | remains clear |  |  |  |  |  |  |  |  | CC(C(=O)O)N(CC(=O)O)CC(=O)O (stereo not drawn) [ee value 50.0, methyl glycine diacetic acid]
 |  |  |  | 103.8 | clear liquid | clear liquid | clear liquid | turbid* liquid | turbid* liquid | turbid, precipitate** | decreases with increasing NaOH amounts | CC(C(=O)O)N(CC(=O)O)CC(=O)O (stereo not drawn) [ee value zero, methyl glycine diacetic acid]
